Experimental data published in patent US11564911B2, “Small molecule dual-inhibitors of TRPV4 and TRPA1 for sanitizing and anesthetizing” (Duke University, priority 2016, dated 2023).
Entries after “also recorded” stand apart in the source; their conditions may differ.

Experiments:
TRPV4 [1] = target: T1, TRPV4 (Sus scrofa, UniProt B3VP30); assay: Ca++ imaging in primary articular chondrocytes, GSK101 stimulation; assay type: cell-based; settings: primary articular chondrocytes (pig), 5 nM GSK101
T1 construct: primary cells, which express functional and biologically-relevant TRPV4 without directed over-expression of the channel; endogenous in cells; host or cells: primary porcine articular chondrocytes (femoral condyles)
T1 sequence (B3VP30 1-871): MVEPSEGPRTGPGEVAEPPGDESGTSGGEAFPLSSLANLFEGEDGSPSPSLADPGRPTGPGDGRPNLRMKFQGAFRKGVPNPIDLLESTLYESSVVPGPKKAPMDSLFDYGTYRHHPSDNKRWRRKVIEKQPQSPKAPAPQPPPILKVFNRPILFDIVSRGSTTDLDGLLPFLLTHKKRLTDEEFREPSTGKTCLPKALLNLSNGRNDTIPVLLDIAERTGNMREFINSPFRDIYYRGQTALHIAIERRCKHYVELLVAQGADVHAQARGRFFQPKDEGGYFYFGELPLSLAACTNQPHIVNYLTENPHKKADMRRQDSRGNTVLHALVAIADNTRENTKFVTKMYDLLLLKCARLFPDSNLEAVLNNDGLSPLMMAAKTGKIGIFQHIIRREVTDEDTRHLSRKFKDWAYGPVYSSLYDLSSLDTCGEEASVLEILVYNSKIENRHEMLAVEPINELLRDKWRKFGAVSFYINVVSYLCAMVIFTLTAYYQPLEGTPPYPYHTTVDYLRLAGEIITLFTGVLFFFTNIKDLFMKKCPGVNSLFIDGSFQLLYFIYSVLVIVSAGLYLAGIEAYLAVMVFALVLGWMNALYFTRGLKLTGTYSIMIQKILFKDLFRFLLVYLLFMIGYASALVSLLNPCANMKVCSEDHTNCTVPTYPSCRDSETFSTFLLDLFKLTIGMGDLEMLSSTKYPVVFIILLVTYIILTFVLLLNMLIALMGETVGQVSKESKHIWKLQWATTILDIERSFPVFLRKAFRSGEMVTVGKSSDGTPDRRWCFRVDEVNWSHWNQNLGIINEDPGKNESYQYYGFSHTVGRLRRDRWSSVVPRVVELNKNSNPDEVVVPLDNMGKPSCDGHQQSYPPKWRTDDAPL
Procedure: FIGS. 28A-28B: Compound 16-8 inhibits TRPV4 in I° cells more potently than GSK205. […] Inset: Chondrocytes responding to activation with GSK101, fura-2 Ca++ imaging; right-hand image taken at 5 sec after GSK101 application. […] (FIG. 28B) 1° (primary) astrocytes (rat); dose-response comparison between 16-8 and GSK205 in response to 5 nM GSK101. Inset: Astrocytes responding to activation with GSK101; right-hand image taken at 5 sec after GSK101 application (mean±SEM, n=5 independent expts, 200 cells/expt; *p<0.05, t-test).
Primary porcine chondrocytes derived from femoral condyles of skeletally mature pigs were cultured and subjected to Ca++ imaging as described previously^19,32,62,63.

[2] = system: C57BL/6J mice, caerulein-evoked acute pancreatitis; assay: Caerulein-evoked acute pancreatitis mouse model; assay type: in vivo; settings: 10 mg/kg i.p., 30 min before caerulein
Procedure: C57BL/6J male mice 8-10 weeks of age were subjected to acute pan-creatitis by intraperitoneal injections of supramaximal doses of caerulein (50 μg/kg) every hour for a total of 6 h, as previously described in^61. Control animals received 25% DMSO-saline solution by intraperitoneal injection every hour for 6 h. Compound 16-8 was dissolved in this vehicle (10 mg/kg) and injected i.p. 30 min prior to the first injection of caerulein. Animals were sacrificed 1 h after the last injection. Blood was collected and pancreatic tissue was promptly isolated, weighed for determination of pancreas wet weight/body weight ratio. Samples of tis-sues were fixed overnight in 10% neutral-buffered formalin, paraffin embedded and H&E-stained, or pancreatic tissue was quickly frozen and assessed for myeloperoxidase (MPO) activity. Serum amylase, MPO and histologic evaluation were conducted as described previously^61.
Assessment of nocifensive behavior^8: Mice were housed in individual cages and video-recorded during the entire experiment. Two mice at a time were observed. Linear movement was measured as one event when mice passed through the median plane of the cage. Analysis began immediately after the first caerulein/vehicle injec-tion and continued until the end of the experiment. Results were expressed as the sum of the movement events spanning the 6 h time-period following the first injection.

[3] = system: primary mouse keratinocytes (1° MK); assay: IL-1β secreted by cultured keratinocytes after UVB exposure (ELISA); assay type: cell-based; settings: 5 μM GSK205
Procedure: Before UV irradiation, culture media was replaced with PBS. The cells were then irradiated at a dose of 50 mJ/cm^2 with UVB. 24 hours later, supernatants were assayed using IL-1β ELISA (R&D Systems, Minneapolis, Minn.).

TRPV4 [4] = target: TRPV4 (Homo sapiens, UniProt Q9HBA0); assay: UVB-evoked Ca++ transient in TRPV4-transfected HEK293T cells; assay type: cell-based; design: expressed in transfected cells; settings: preexposure to 20 μM GSK205
TRPV4 (Homo sapiens, UniProt Q9HBA0), sequence (Q9HBA0 whole entry, species assumed): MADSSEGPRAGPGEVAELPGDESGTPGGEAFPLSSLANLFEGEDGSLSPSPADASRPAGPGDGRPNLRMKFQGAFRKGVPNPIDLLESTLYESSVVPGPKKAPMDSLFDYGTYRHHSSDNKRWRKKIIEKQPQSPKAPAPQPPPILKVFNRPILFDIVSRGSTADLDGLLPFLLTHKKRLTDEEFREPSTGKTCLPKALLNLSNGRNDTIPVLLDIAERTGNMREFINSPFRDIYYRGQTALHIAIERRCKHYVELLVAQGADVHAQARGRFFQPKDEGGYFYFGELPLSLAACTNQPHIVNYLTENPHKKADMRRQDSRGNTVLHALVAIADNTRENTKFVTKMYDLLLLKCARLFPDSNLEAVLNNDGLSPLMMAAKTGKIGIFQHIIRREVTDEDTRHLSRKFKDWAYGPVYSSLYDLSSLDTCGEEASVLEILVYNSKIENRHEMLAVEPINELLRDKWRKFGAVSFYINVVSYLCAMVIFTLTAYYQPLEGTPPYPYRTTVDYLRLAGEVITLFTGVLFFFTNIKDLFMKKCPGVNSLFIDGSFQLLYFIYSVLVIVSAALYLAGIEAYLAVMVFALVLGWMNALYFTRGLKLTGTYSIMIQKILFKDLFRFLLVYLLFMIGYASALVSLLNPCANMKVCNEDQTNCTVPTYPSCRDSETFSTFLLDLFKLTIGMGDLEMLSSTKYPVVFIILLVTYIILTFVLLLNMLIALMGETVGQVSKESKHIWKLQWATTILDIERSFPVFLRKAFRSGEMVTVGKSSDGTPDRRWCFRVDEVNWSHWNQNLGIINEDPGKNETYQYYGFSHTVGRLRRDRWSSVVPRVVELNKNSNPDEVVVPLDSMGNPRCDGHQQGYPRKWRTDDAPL
From the text: (FIG. 2B) Focusing properties of the ball lens. […] (FIG. 2E) TRPV3 activation experiment. […] (FIG. 2F) TRPV4 selective activator GSK101-related findings.
To assess whether TRPV4 is sufficient for the UVB-evoked Ca++ influx, we introduced high levels of TRPV4 into HEK293 epithelial cells. TRPV4 expression endowed these cells with the ability to generate robust Ca++ signaling in response to UVB (FIG. 2G). Moreover, if they were pre-exposed to GSK205, the response was blocked. Thus, heterologous TRPV4 expression is sufficient for UVB radiation to cause a cellular Ca++ transient.

[5] = system: primary mouse keratinocytes (1° MK); assay: ET1 secretion by non-stimulated primary mouse keratinocytes (ELISA); assay type: cell-based
Procedure: FIGS. 8A-8D: Central role for KC TRPV4 in UVB-evoked Ca^++ signaling and nocifensive behavior—ET1-related supplementary findings. (FIG. 8A) Augmentation of GSK101-evoked Ca^++ signaling by ET1. Shown are averaged Ca^++ measurements (fura-2) in response to 5 nM GSK101. Note the increase in signal in response to co-exposure to ET1. (FIG. 8B) ET1 secretion by non-stimulated 1° MK depends on TRPV4 and PLC. Shown are relative ET1 concentrations (determined by ELISA, pg/mL; vehicle-treated and WT control normalized to 100) in supernatant of non-stimulated 1° MK. Note the clear dependence on TRPV4, as indicated by a 50% reduction in Trpv4^−/− 1° MK. […] There is also down-regulation of ET1 secretion by a specific inhibitor of PLC (U73122), and by an ET-convertase inhibitor, CGS35066, which served as a control compound. In addition, PLC-inhibitor robustly affects ET1 secretion in WT and Trpv4^−/− 1° MK. (FIG. 8C) ET1 expression by UVB-exposed 1° MK depends on TRPV4 and PLC—immunocytochemistry. Shown is specific ET1 immunolabeling in 1° MK, exposed to UVB using the UVB-LEDs, as for Ca^++ imaging. Use of the UVB-LED device precluded application of a ET1 ELISA, only irradiated cells could be examined. […] (FIG. 8D) ET1 expression by UVB-exposed 1° MK depends on TRPV4 and PLC—quantification of immunocytochemistry.

[6] = system: trigeminal formalin-evoked pain behavior; settings: dose-dependent, intradermal injection; cited from earlier work

Structure (SMILES): CN(CCc1ccc(Nc2nc(-c3ccccc3)cs2)cc1)Cc1ccccc1 [Compound 16-8]
- potency versus GSK205, dose-response of peak ΔCa++ (TRPV4 [1]): significantly more potent than GSK205
- histopathological score for pancreas inflammation [2]: significantly reduced
- myelo-peroxidase content of the pancreas [2]: significantly reduced
- pain behavior (movement events over 6 h) [2]: virtually eliminated
- pancreatic edema [2]: virtually eliminated
- serum amylase [2]: significantly reduced; also recorded: reduced, but not significantly

Structure (SMILES): CN(CCc1ccc(Nc2nc(-c3cccnc3)cs2)cc1)Cc1ccccc1 [GSK205]
- UVB-induced increase in IL-1β secretion by 1° MK [3]: completely eliminated
- UVB-evoked Ca++-signal in TRPV4-transfected HEK293T cells (TRPV4 [4]): virtually eliminates
- ET1 secretion, supernatant of non-stimulated 1° MK [5]: significant down-regulation
- trigeminal formalin-evoked pain behavior, earlier study [6]: effective attenuation
